Laboratory results reported in the supplement of paper PMC10307832.

Key:
Experiment in all cases: relative viability (nuclei count vs DMSO), 5 days (fraction); higher = more cells survive
[1] = compound: CCN1C(=O)C2=CC(=C(N=C2N(C1=O)C3CC3)N)C(=O)N + C[C@]1(O)C[C@@H](c2nc(-c3ccc4ccc(-c5ccccc5)nc4c3)c3c(N)nccn32)C1 [Linsitinib] (partner 1 µM)
Summary of the method: (§1)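 The day after seeding in 1536-well plates, lung cancer cell lines were treated by pin tool with a single drug, or with a fixed anchor-drug dose together with five library-drug doses (not always all listed) in √10 steps. After 5 days, a combined fix-and-stain solution (final 0.05% Triton X-100, 1% formaldehyde, 1 ug/ml Hoechst) was added. Nuclei counted on 4× images gave relative viability as treated counts over vehicle counts, reported as the median of duplicate plates.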

[2] = compound: CCN1C(=O)C2=CC(=C(N=C2N(C1=O)C3CC3)N)C(=O)N + Cc1cc(Nc2cc(N3CCN(C)CC3)nc(Sc3ccc(NC(=O)C4CC4)cc3)n2)n[nH]1 [Tozasertib] (partner 0.1 µM)
Summary of the method: as §1

[3] = compound: CCN1C(=O)C2=CC(=C(N=C2N(C1=O)C3CC3)N)C(=O)N + Cc1nc(Nc2ncc(C(=O)Nc3c(C)cccc3Cl)s2)cc(N2CCN(CCO)CC2)n1 [Dasatinib] (partner 0.075 µM)
Summary of the method: as §1

[4] = compound: CCN1C(=O)C2=CC(=C(N=C2N(C1=O)C3CC3)N)C(=O)N + O=C(CCCCCCC(=O)Nc1ccccc1)NO [Vorinostat] (partner 1 µM)
Summary of the method: as §1

[5] = compound: CCN1C(=O)C2=CC(=C(N=C2N(C1=O)C3CC3)N)C(=O)N + O=C(c1cc(Cc2n[nH]c(=O)c3ccccc23)ccc1F)N1CCN(C(=O)C2CC2)CC1 [Olaparib] (partner 8 µM)
Summary of the method: as §1

Row | Cell Line | relative viability ([1]; first compound 0.253 µM) | relative viability ([1]; first compound 0.8 µM) | relative viability ([1]; first compound 2.53 µM) | relative viability ([1]; first compound 8 µM) | relative viability ([2]; first compound 0.253 µM) | relative viability ([2]; first compound 0.8 µM) | relative viability ([2]; first compound 2.53 µM) | relative viability ([2]; first compound 8 µM) | relative viability ([3]; first compound 0.253 µM) | relative viability ([3]; first compound 0.8 µM) | relative viability ([3]; first compound 2.53 µM) | relative viability ([3]; first compound 8 µM) | relative viability ([4]; first compound 0.253 µM) | relative viability ([4]; first compound 0.8 µM) | relative viability ([4]; first compound 2.53 µM) | relative viability ([4]; first compound 8 µM) | relative viability ([5]; first compound 0.253 µM) | relative viability ([5]; first compound 0.8 µM) | relative viability ([5]; first compound 2.53 µM) | relative viability ([5]; first compound 8 µM)
1 | NCI-H1755 | 1.02 | 0.997 | 1.01 | 0.942 | 0.567 | 0.515 | 0.514 | 0.528 | 0.411 | 0.506 | 0.459 | 0.45 | 0.743 | 0.722 | 0.76 | 0.719 | 0.908 | 0.872 | 0.831 | 0.843
2 | NCI-H1793 | 0.656 | 0.944 |  | 0.956 |  | 0.375 | 0.265 | 0.298 |  | 0.434 | 0.32 | 0.419 | 0.665 | 0.747 | 0.797 | 0.805 | 0.921 | 0.731 | 0.851 | 0.875
3 | NCI-H1915 | 1.09 | 1.1 | 1.08 | 1.06 | 0.451 | 0.33 | 0.393 | 0.416 | 0.294 | 0.307 | 0.312 | 0.285 | 0.49 | 0.546 | 0.493 | 0.436 | 0.271 | 0.284 | 0.261 | 0.286
4 | NCI-H1944 | 1.19 | 1.16 | 1.02 | 1.18 | 0.26 | 0.266 | 0.247 | 0.279 | 0.22 | 0.217 | 0.213 | 0.217 | 0.641 | 0.51 | 0.51 | 0.553 | 0.4 | 0.411 | 0.374 | 0.437
5 | NCI-H1975 | 0.981 | 0.955 | 0.882 | 1.04 | 0.738 | 0.737 | 0.608 | 0.331 | 0.381 | 0.341 | 0.356 | 0.268 | 0.733 | 0.772 | 0.697 | 0.757 | 0.747 | 0.82 | 0.734 | 0.785
6 | NCI-H1993 | 0.732 | 0.784 | 0.7 | 0.777 | 0.6 | 0.569 | 0.537 | 0.512 | 0.511 | 0.49 | 0.477 | 0.497 | 0.0267 | 0.735 | 0.76 | 0.853 | 1.57 | 0.75 | 1.05 | 1.08
7 | NCI-H2009 | 1.24 | 1.15 | 1.11 | 1.1 | 0.732 | 0.751 | 0.697 | 0.809 | 0.289 | 0.291 | 0.275 | 0.259 | 0.732 | 0.647 | 0.62 | 0.663 | 0.688 | 0.665 | 0.667 | 0.71
8 | NCI-H2023 | 0.68 | 0.621 | 0.548 | 0.652 | 0.402 | 0.32 | 0.241 | 0.233 | 0.629 | 0.478 | 0.546 | 0.55 | 0.628 | 0.58 | 0.68 | 0.712 | 0.463 | 0.477 | 0.451 | 0.487
9 | NCI-H2085 | 0.969 | 0.754 | 0.799 | 0.863 | 0.85 | 0.726 | 0.867 | 0.613 | 0.224 | 0.259 | 0.227 | 0.23 | 0.767 | 0.764 | 0.747 | 0.782 | 0.835 | 0.815 | 0.72 | 0.814
10 | NCI-H2087 | 1.02 | 0.963 | 0.971 | 1.04 | 0.258 | 0.249 | 0.214 | 0.266 | 0.746 | 0.829 | 0.818 | 0.753 | 0.634 | 1.23 | 0.911 | 0.676 | 0.638 | 0.82 | 0.643 | 0.585
11 | NCI-H2126 | 0.741 | 0.745 | 0.656 | 0.718 | 0.86 | 0.798 | 0.801 | 0.828 | 0.632 | 0.55 | 0.596 | 0.52 | 0.846 | 0.803 | 0.765 | 0.797 | 0.876 | 0.932 | 0.887 | 0.939
12 | NCI-H2228 | 0.984 | 0.943 | 0.606 | 0.969 | 0.205 | 0.189 | 0.233 | 0.162 | 0.505 | 0.467 | 0.508 | 0.55 | 0.933 | 0.572 | 0.676 | 0.679 | 0.827 | 0.723 | 0.577 | 0.282
13 | NCI-H2347 | 1.04 | 1.03 | 0.925 | 0.845 | 0.666 | 0.61 | 0.572 | 0.482 | 0.294 | 0.307 | 0.161 | 0.323 | 0.634 | 0.462 | 0.623 | 0.639 | 0.576 | 0.612 | 0.55 | 0.518
14 | NCI-H2405 | 1.05 | 0.954 | 1.04 | 0.988 | 0.823 | 0.777 | 0.757 | 0.732 | 0.196 | 0.185 | 0.227 | 0.174 | 1.21 |  | 1.26 | 1.14 | 0.9 |  | 0.904 | 0.91
15 | NCI-H3122 | 1.04 | 0.96 | 0.982 | 1.06 | 0.393 | 0.369 | 0.376 | 0.533 | 0.772 | 0.803 | 0.81 | 0.788 | 0.912 | 0.975 | 0.968 | 0.988 | 0.636 | 0.659 | 0.624 | 0.581
16 | PC-3 [JPC-3] | 0.982 | 0.933 | 0.92 | 0.919 | 0.911 | 0.872 | 0.925 | 0.869 | 1.05 | 1.04 | 1.05 | 0.973 | 0.93 |  | 1.22 | 1.08 | 1.13 |  | 1.18 | 1.21
